Data taken from the NIST ThermoML archive (doi:10.1021/je300280s).
Values joined by “and” are separate entries in the source; they are usually repeats but may differ in a detail not shown here. Equal entries are not always repeated.

Assays:
[1] = 101.33 kPa, Liquid, Vibrating tube method
[2] = xn = mol fraction of the nth substance listed; conditions: 101.3 kPa, Liquid, Vibrating tube method
[3] = excess molar enthalpy (molar enthalpy of mixing); xn = mol fraction of the nth substance listed; conditions: 101.3 kPa, Liquid, Flow calorimetry

CC/C=C\CCO [(Z)-3-hexen-1-ol]
[1]
Conditions | mass density [kg/m3]
288.15 K | 856.22
293.15 K | 852.44
298.15 K | 848.64
308.15 K | 840.99
318.15 K | 833.27

CC/C=C\CCO [(Z)-3-hexen-1-ol] + O
Conditions | excess molar enthalpy, [3] | mass density, [2]
288.15 K, x1 = 0.000611 | -0.00593 kJ/mol | 998.763 kg/m3
288.15 K, x1 = 0.000916 | -0.00879 kJ/mol | 998.596 kg/m3
288.15 K, x1 = 0.001221 | -0.0116 kJ/mol | 998.432 kg/m3
288.15 K, x1 = 0.001526 | -0.0144 kJ/mol | 998.27 kg/m3
288.15 K, x1 = 0.001831 | -0.0172 kJ/mol | 998.106 kg/m3
288.15 K, x1 = 0.002135 | -0.0198 kJ/mol | 997.95 kg/m3
298.15 K, x1 = 0.00061 | -0.00403 kJ/mol | 996.68 kg/m3
298.15 K, x1 = 0.000915 | -0.00597 kJ/mol | 996.493 kg/m3
298.15 K, x1 = 0.00122 | -0.00783 kJ/mol | 996.319 kg/m3
298.15 K, x1 = 0.001524 | -0.00967 kJ/mol | 996.139 kg/m3
298.15 K, x1 = 0.001828 | -0.0115 kJ/mol | 995.963 kg/m3
298.15 K, x1 = 0.002132 | -0.0132 kJ/mol | 995.788 kg/m3
308.15 K, x1 = 0.000306 | -0.00117 kJ/mol | 993.834 kg/m3
308.15 K, x1 = 0.000611 | -0.00221 kJ/mol | 993.642 kg/m3
308.15 K, x1 = 0.000612 | -0.00223 kJ/mol | 993.637 kg/m3
308.15 K, x1 = 0.000916 | -0.00329 kJ/mol | 993.442 kg/m3
308.15 K, x1 = 0.000918 | -0.0033 kJ/mol | 993.441 kg/m3
308.15 K, x1 = 0.001221 | -0.00428 kJ/mol | 993.253 kg/m3
308.15 K, x1 = 0.001224 | -0.00428 kJ/mol | 993.253 kg/m3
308.15 K, x1 = 0.001526 | -0.00522 kJ/mol | 993.064 kg/m3
308.15 K, x1 = 0.001529 | -0.00528 kJ/mol | 993.059 kg/m3
308.15 K, x1 = 0.001831 | – | 992.912 kg/m3
308.15 K, x1 = 0.001835 | -0.0061 kJ/mol | 992.883 kg/m3
318.15 K, x1 = 0.000611 | -0.00059 kJ/mol | 989.794 kg/m3
318.15 K, x1 = 0.000612 | -0.00058 kJ/mol | 989.796 kg/m3
318.15 K, x1 = 0.000917 | -0.00083 kJ/mol and -0.00081 kJ/mol | 989.578 kg/m3 and 989.591 kg/m3
318.15 K, x1 = 0.001222 | -0.00101 kJ/mol | 989.38 kg/m3
318.15 K, x1 = 0.001223 | -0.001 kJ/mol | 989.388 kg/m3
318.15 K, x1 = 0.001527 | -0.00117 kJ/mol | 989.183 kg/m3
318.15 K, x1 = 0.001528 | -0.00119 kJ/mol | 989.184 kg/m3
318.15 K, x1 = 0.001832 | -0.00129 kJ/mol | 988.988 kg/m3
318.15 K, x1 = 0.001833 | -0.0013 kJ/mol | 988.984 kg/m3
318.15 K, x1 = 0.002137 | – | 988.803 kg/m3 and 988.815 kg/m3

CCCC(=O)OC [methyl butanoate]
[1]
Conditions | mass density [kg/m3]
288.15 K | 903.34
293.15 K | 897.88
298.15 K | 892.38
303.15 K | 886.86
308.15 K | 881.3
313.15 K | 875.74
318.15 K | 870.14

CC(=O)C(C)=O [2,3-butanedione]
[1]
Conditions | mass density [kg/m3]
288.15 K | 998.09
293.15 K | 991.78
298.15 K | 985.5
303.15 K | 979.18
308.15 K | 972.83
313.15 K | 966.48
318.15 K | 960.08

CCCOC(C)=O [propyl ethanoate]
[1]
Conditions | mass density [kg/m3]
288.15 K | 893.2
298.15 K | 882.05
308.15 K | 870.87
318.15 K | 859.52
